Measured values reported in US20260217765A1, “NOVEL ANTIMICROBIAL PEPTIDE DESIGNED FROM DUCK-DERIVED ANTIMICROBIAL PEPTIDE ANDUSE THEREOF” (INDUSTRY-ACADEMIC COOPERATION FOUNDATION, CHOSUN UNIVERSITY, priority 2023, published 2026).
Peptide text beside a SMILES is read from it.

How the values were obtained:
sheep red blood cells = assay type: cell-based
Protocol: To evaluate the cytotoxicity of the peptides prepared in <Example 1>, their hemolytic activity against red blood cells was measured. Hemolysis refers to the rupture of red blood cells with the release of hemoglobin into the surrounding fluid. The cytotoxicity of the novel peptides of the present disclosure was assessed by measuring their hemolytic activity against erythrocytes.
Specifically, sheep red blood cells were diluted with PBS (pH 7.0) to a final concentration of 8%. The peptides dCATH, dCATH-A1, dCATH-A2, dCATH-A3, dCATH-A4, dCATH-A5, dCATH-A6, and dCATH-A7 were each added to the wells at concentrations of 3.13, 6.25, 12.5, 25.0, 50.0, and 100.0 μM/well and reacted at 37° C. for 1 hour. Thereafter, the samples were centrifuged at 1, 000×g, and the absorbance of hemoglobin in the supernatant was measured at 414 nm. As a control for complete cell lysis, 1% Triton X-100 (Sigma, USA) was used and incubated under the same conditions. The absorbance of this sample was set to represent 100% hemolysis, and hemolytic activity (%) for each peptide was calculated using the following Equation 1.
In the above equation, Absorbance A is the absorbance at 414 nm of the reaction solution treated with each peptide, Absorbance B is the absorbance at 414 nm of the PBS-treated reaction solution, and Absorbance C is the absorbance at 414 nm of the reaction solution treated with 1% Triton X-100.

[1] = system: Acinetobacter baumannii isolate 10; test: In vivo antimicrobial activity, intranasal lung infection, H&E staining; set-up: species or system BALB/c mice; settings: mice intranasally infected with A. baumannii isolate 10, peptide intranasal, day 3
Protocol: Among the peptides prepared in <Example 1>, dCATH-A7 was selected to evaluate in vivo antimicrobial activity.
Among the antibiotic-resistant strains, Acinetobacter baumannii isolate 10 was selected for the experiment. The bacteria were washed three times with PBS buffer prior to use. After a one-week acclimation period, BALB/c mice (6 weeks old) were intranasally infected with 20 μL of a 1×10^9 CFU/mL bacterial suspension. Following infection, the peptide was prepared at a concentration of 5 mg/mL and administered intranasally. On day 3, lung tissue samples were collected and subjected to hematoxylin and eosin (H&E) staining to assess tissue damage.

| Compound | hemolytic activity at concentrations corresponding to antimicrobial activity (sheep red blood cells) | lung tissue damage (H&E staining) [1] |
| --- | --- | --- |
| CC[C@H](C)[C@H](NC(=O)[C@H](C)NC(=O)[C@H](CCCCN)NC(=O)[C@H](CCCCN)NC(=O)[C@@H](NC(=O)[C@H](CC(C)C)NC(=O)[C@H](CCC(N)=O)NC(=O)[C@H](C)NC(=O)[C@H](C)NC(=O)[C@H](CCCNC(=N)N)NC(=O)[C@@H](N)CCCCN)C(C)C)C(=O)N[C@@H](CCCCN)C(=O)N[C@@H](CCCCN)C(=O)N[C@@H](Cc1ccc(O)cc1)C(=O)N[C@@H](CCCNC(=N)N)C(=O)N[C@@H](C)C(=O)N[C@@H](Cc1c[nH]c2ccccc12)C(=O)N[C@@H](CCCCN)C(=O)N[C@@H](CCCNC(=N)N)C(=O)N[C@@H](CCCNC(=N)N)C(N)=O [dCATH-A6] (H-KRAAQLVKKAIKKYRAWKRR-NH2; N-terminus assumed) | no hemolytic activity | – |
| CC[C@H](C)[C@H](NC(=O)[C@H](C)NC(=O)[C@H](CCCCN)NC(=O)[C@H](CCCCN)NC(=O)[C@@H](NC(=O)[C@H](CC(C)C)NC(=O)[C@H](CCC(N)=O)NC(=O)[C@H](C)NC(=O)[C@H](C)NC(=O)[C@H](CCCNC(=N)N)NC(=O)[C@@H](N)CCCCN)C(C)C)C(=O)N[C@@H](CCCCN)C(=O)N[C@@H](CCCCN)C(=O)N[C@@H](Cc1ccc(O)cc1)C(=O)N[C@@H](CCCNC(=N)N)C(=O)N[C@@H](C)C(=O)N[C@@H](Cc1c[nH]c2ccccc12)C(=O)N[C@@H](CCCCN)C(N)=O [dCATH-A7, KRAAQLVKKAIKKYRAWK] (H-KRAAQLVKKAIKKYRAWK-NH2; N-terminus assumed) | no hemolytic activity | minimal fibrosis and overall reduced tissue damage |
